Activity and IC50 data for 61 compounds are collected here from ChEMBL document CHEMBL5543086, “Discovery of novel NSAID hybrids as cPLA2/COX-2 dual inhibitors alleviating rheumatoid arthritis via inhibiting p38 MAPK pathway” (Eur J Med Chem, 2024).

Data set [1] deals with RAW264.7. Description: Cytotoxicity against LPS-induced mouse RAW264.7 cells assessed as reduction in cell viability at 30 uM pretreated for 1 hr followed by LPS addition and measured after 24 hrs by MTT assay. Conditions: raw264.7, 25 h. It counts as toxicity, cell-based. For orientation: Tetrazolium dyes change colour on reduction, which living cells bring about.
Data set [2] relates to RAW264.7. As to the kind of experiment: Antiinflammatory activity in LPS-induced mouse RAW264.7 cells assessed as inhibition of NO production pretreated for 1 hr followed by LPS stimulation and measured after 24 hrs by griess reagent based assay. It counts as functional, cell-based. For orientation: Griess reagent forms a coloured azo dye with nitrite.

SMILES strings stand for the structures.

As for `CCCCCCCCCCCCCCCCCC/C=C(/OC(=O)[C@@H](C)c1ccc2cc(OC)ccc2c1)C(F)(F)F`, the Activity result with RAW264.7 [1] was “Non-Toxic”.
As to `CCCCCCC/C=C(/OC(=O)[C@@H](C)c1ccc2cc(OC)ccc2c1)C(F)(F)F`, the Activity result in the data set on RAW264.7 [1] is reported as “Non-Toxic”.
For the compound `CCCCC/C=C\C/C=C\CCCCCC/C=C(/OC(=O)C(C)c1ccc(C(=O)c2ccccc2)cc1)C(F)(F)F` (centres undefined), the Activity result with RAW264.7 [1] is “Non-Toxic”.
As for `CCCCCCCC/C=C(/OC(=O)c1ccccc1OC(C)=O)C(F)(F)F`, the Activity entry with RAW264.7 [1] is recorded as “Non-Toxic”.
In the case of `CCCCCCCCCC/C=C(/OC(=O)C(C)c1ccc(CC(C)C)cc1)C(F)(F)F` (centres undefined), in the data set with RAW264.7 [1], the Activity result is reported as “Non-Toxic”.
On to `CCCCCCC/C=C(/OC(=O)C(C)c1ccc(CC(C)C)cc1)C(F)(F)F` (centres undefined), for which the Activity result with RAW264.7 [1] is recorded as “Non-Toxic”.
Consider `CCCCCCCC/C=C\CCCCCCCCCC/C=C(/OC(=O)[C@@H](C)c1ccc2cc(OC)ccc2c1)C(F)(F)F`, for which the Activity entry in the data set with RAW264.7 [1] is listed as “Non-Toxic”.
In the case of `C=CCCCCCCC/C=C(/OC(=O)[C@@H](C)c1ccc2cc(OC)ccc2c1)C(F)(F)F`, the Activity result with RAW264.7 [1] is on record as “Non-Toxic”.
As for `CCCCCCCC/C=C(/OC(=O)C(C)c1ccc(-c2ccccc2)c(F)c1)C(F)(F)F` (centres undefined), the Activity result in the data set on RAW264.7 [1] is given as “Non-Toxic”.
Turning to `CCCCC/C=C\C/C=C\CCCCCC/C=C(/OC(=O)c1ccccc1OC(C)=O)C(F)(F)F`, the Activity result in the data set with RAW264.7 [1] is on record as “Non-Toxic”.
The same measure, in the same setting: the result for `CCCCCCCCCCCCCC/C=C(/OC(=O)C(C)c1ccc(-c2ccccc2)c(F)c1)C(F)(F)F` (centres undefined) reads “Non-Toxic”; that for `CCCCCCCC/C=C\CCCCCC/C=C(/OC(=O)[C@@H](C)c1ccc2cc(OC)ccc2c1)C(F)(F)F`, “Non-Toxic”.
On to `CCCCC/C=C\C/C=C\C/C=C\C/C=C\CC/C=C(/OC(=O)C(C)c1ccc(CC(C)C)cc1)C(F)(F)F` (centres undefined), for which the Activity entry in the data set on RAW264.7 [1] is on record as “Non-Toxic”. The IC50 (commonly the concentration needed to halve the response being measured) with RAW264.7 [2] came to 4.74 µM.
Take `CCCCCCCC/C=C(/OC(=O)C(C)c1ccc(CC(C)C)cc1)C(F)(F)F` (centres undefined): the Activity entry in the data set with RAW264.7 [1] is “Non-Toxic”.
Same read-out and setting: the result for `CCCCCCCCCCCCCC/C=C(/OC(=O)c1ccccc1OC(C)=O)C(F)(F)F` reads “Non-Toxic”; that for `CCCCCCCCCCCC/C=C(/OC(=O)[C@@H](C)c1ccc2cc(OC)ccc2c1)C(F)(F)F`, “Non-Toxic”.
Take `CCCCCCCCCCCCCCCCCCCC/C=C(/OC(=O)c1ccccc1OC(C)=O)C(F)(F)F`: the Activity result with RAW264.7 [1] was “Non-Toxic”.
With `CCCCCCCCCCCCC/C=C(/OC(=O)C(C)c1ccc(CC(C)C)cc1)C(F)(F)F` (centres undefined), in the data set with RAW264.7 [1], the Activity result is listed as “Non-Toxic”.
Turning to `CCCCCCCCCCCC/C=C(/OC(=O)C(C)c1ccc(CC(C)C)cc1)C(F)(F)F` (centres undefined), the Activity entry in the data set on RAW264.7 [1] is listed as “Non-Toxic”.
On to `CCCCCCCCCCCCCCCC/C=C(/OC(=O)c1ccccc1OC(C)=O)C(F)(F)F`, for which, in the data set with RAW264.7 [1], the Activity result is listed as “Non-Toxic”.
As to `CCCCCCCC/C=C\CCCCCC/C=C(/OC(=O)C(C)c1ccc(CC(C)C)cc1)C(F)(F)F` (centres undefined), the Activity result in the data set with RAW264.7 [1] is “Non-Toxic”.
On to `CCCCCCCCCCCCCCCCCC/C=C(/OC(=O)c1ccccc1OC(C)=O)C(F)(F)F`, for which, in the data set on RAW264.7 [1], the Activity entry is “Non-Toxic”.
On to `CCCCCCCC/C=C\CCCCCC/C=C(/OC(=O)c1ccccc1OC(C)=O)C(F)(F)F`, for which, in the data set with RAW264.7 [1], the Activity result is given as “Non-Toxic”.
Consider `CCCCCCCCCCCCCC/C=C(/OC(=O)[C@@H](C)c1ccc2cc(OC)ccc2c1)C(F)(F)F`, for which the Activity entry in the data set on RAW264.7 [1] is “Non-Toxic”.
With `CCCCC/C=C\C/C=C\C/C=C\C/C=C\CC/C=C(/OC(=O)Cc1c(C)n(C(=O)c2ccc(Cl)cc2)c2ccc(OC)cc12)C(F)(F)F`, the Activity entry in the data set with RAW264.7 [1] was “Non-Toxic”.
Same read-out and setting: with `CCCCCCCCCCCCCCCCCCCC/C=C(/OC(=O)C(C)c1ccc(-c2ccccc2)c(F)c1)C(F)(F)F` (centres undefined) the entry was “Non-Toxic”.
On to `CCCC/C=C(/OC(=O)C(C)c1ccc(CC(C)C)cc1)C(F)(F)F` (centres undefined), for which, in the data set on RAW264.7 [1], the Activity entry is reported as “Non-Toxic”.
As to `CCCCCCCCCCCC/C=C(/OC(=O)c1ccccc1OC(C)=O)C(F)(F)F`, the Activity entry in the data set on RAW264.7 [1] was “Non-Toxic”.
As to `C=CCCCCCCC/C=C(/OC(=O)C(C)c1ccc(-c2ccccc2)c(F)c1)C(F)(F)F` (centres undefined), in the data set on RAW264.7 [1], the Activity entry is “Non-Toxic”.
As to `CCCCC/C=C\C/C=C\C/C=C\C/C=C\CC/C=C(/OC(=O)c1ccccc1OC(C)=O)C(F)(F)F`, the Activity entry with RAW264.7 [1] was “Non-Toxic”.
As to `CCCCCCCC/C=C\CCCCCC/C=C(/OC(=O)C(C)c1ccc(-c2ccccc2)c(F)c1)C(F)(F)F` (centres undefined), the Activity entry in the data set with RAW264.7 [1] was “Non-Toxic”.
On to `CCCCCCCCCCCCCCCC/C=C(/OC(=O)C(C)c1ccc(CC(C)C)cc1)C(F)(F)F` (centres undefined), for which the Activity entry with RAW264.7 [1] is given as “Non-Toxic”.
As to `CCCCC/C=C\C/C=C\CCCCCC/C=C(/OC(=O)C(C)c1ccc(CC(C)C)cc1)C(F)(F)F` (centres undefined), the Activity entry in the data set on RAW264.7 [1] is “Non-Toxic”.
Same read-out and setting: with `CCCCCCCCCCCCCCCCCC/C=C(/OC(=O)C(C)c1ccc(-c2ccccc2)c(C)c1)C(F)(F)F` (centres undefined) the entry was “Non-Toxic”.
As for `CCCCC/C=C\C/C=C\C/C=C\C/C=C\CC/C=C(/OC(=O)[C@@H](C)c1ccc2cc(OC)ccc2c1)C(F)(F)F`, in the data set with RAW264.7 [1], the Activity entry is on record as “Non-Toxic”. Moreover, the half-inhibitory concentration (IC50) in the data set on RAW264.7 [2] came to 6.67 µM.
As to `CCCCCCCCCCCCCCCCCCCC/C=C(/OC(=O)C(C)c1ccc(CC(C)C)cc1)C(F)(F)F` (centres undefined), the Activity entry in the data set with RAW264.7 [1] was “Non-Toxic”.
With `CCCCCCCCCC/C=C(/OC(=O)C(C)c1ccc(C(=O)c2ccccc2)cc1)C(F)(F)F` (centres undefined), the Activity result in the data set on RAW264.7 [1] was “Non-Toxic”.
On to `CCCCC/C=C\C/C=C\CCCCCC/C=C(/OC(=O)[C@@H](C)c1ccc2cc(OC)ccc2c1)C(F)(F)F`, for which the Activity result in the data set with RAW264.7 [1] is on record as “Non-Toxic”.
Still for that read-out and setting: with `CCCCCCCCCC/C=C(/OC(=O)C(C)c1ccc(-c2ccccc2)c(F)c1)C(F)(F)F` (centres undefined) the entry was “Non-Toxic”.
Turning to `CCCCC/C=C\C/C=C\CCCCCC/C=C(/OC(=O)C(C)c1ccc(-c2ccccc2)c(F)c1)C(F)(F)F` (centres undefined), the Activity entry in the data set on RAW264.7 [1] is “Non-Toxic”.
In the case of `CCCCCCCCCCCCCCCCCCCC/C=C(/OC(=O)[C@@H](C)c1ccc2cc(OC)ccc2c1)C(F)(F)F`, the Activity entry with RAW264.7 [1] is given as “Non-Toxic”.
As for `CCCCC/C=C\C/C=C\C/C=C\C/C=C\CCCC(=O)C(F)(F)F` [ARACHIDONYL TRIFLUOROMETHYLKETONE], in the data set on RAW264.7 [1], the Activity entry is “Non-Toxic”.
As to `CCCCCCCCCCCCCCCC/C=C(/OC(=O)C(C)c1ccc(-c2ccccc2)c(F)c1)C(F)(F)F` (centres undefined), the Activity result in the data set with RAW264.7 [1] is reported as “Non-Toxic”.
On the same count and under the same terms, with `CCCCCCCCCCCCCCCC/C=C(/OC(=O)[C@@H](C)c1ccc2cc(OC)ccc2c1)C(F)(F)F` the entry was “Non-Toxic”.
`CCCCCC/C=C(/OC(=O)c1ccccc1OC(C)=O)C(F)(F)F`: the Activity result in the data set with RAW264.7 [1] was “Non-Toxic”.
Take `CCCCCCC/C=C(/OC(=O)C(C)c1ccc(-c2ccccc2)c(F)c1)C(F)(F)F` (centres undefined): the Activity entry with RAW264.7 [1] is “Non-Toxic”.
The same measure, in the same setting: with `CCCCCCCC/C=C\CCCCCCCCCC/C=C(/OC(=O)C(C)c1ccc(CC(C)C)cc1)C(F)(F)F` (centres undefined) the entry was “Non-Toxic”.
Consider `CCCCCCCC/C=C\CCCCCCCCCC/C=C(/OC(=O)c1ccccc1OC(C)=O)C(F)(F)F`, for which the Activity entry in the data set with RAW264.7 [1] is recorded as “Non-Toxic”.
For `CCCCCCCCCC/C=C(/OC(=O)[C@@H](C)c1ccc2cc(OC)ccc2c1)C(F)(F)F`, the Activity entry in the data set with RAW264.7 [1] is on record as “Non-Toxic”.
Still for that read-out and setting: with `CCCCCCCCCCCCCCCCC/C=C(/OC(=O)C(C)c1ccc(CC(C)C)cc1)C(F)(F)F` (centres undefined) the entry was “Non-Toxic”.
On the same count and under the same terms, the result for `CCC/C=C(/OC(=O)C(C)c1ccc(CC(C)C)cc1)C(F)(F)F` (centres undefined) reads “Non-Toxic”; that for `CCCCCCC/C=C(/OC(=O)c1ccccc1OC(C)=O)C(F)(F)F`, “Non-Toxic”.
On to `CCCCCCCCCCCCCCCCCC/C=C(/OC(=O)C(C)c1ccc(C(=O)c2ccccc2)cc1)C(F)(F)F` (centres undefined), for which the Activity entry with RAW264.7 [1] is “Non-Toxic”.
Still for that read-out and setting: with `CCCCCCCCCCCCCCC/C=C(/OC(=O)C(C)c1ccc(CC(C)C)cc1)C(F)(F)F` (centres undefined) the entry was “Non-Toxic”.
Turning to `CCCCCC/C=C(/OC(=O)C(C)c1ccc(CC(C)C)cc1)C(F)(F)F` (centres undefined), the Activity result with RAW264.7 [1] is given as “Non-Toxic”.
As to `CCCCCCCC/C=C(/OC(=O)[C@@H](C)c1ccc2cc(OC)ccc2c1)C(F)(F)F`, in the data set on RAW264.7 [1], the Activity result was “Non-Toxic”.
Consider `CCCCCCCC/C=C\CCCCCCCCCC/C=C(/OC(=O)C(C)c1ccc(-c2ccccc2)c(F)c1)C(F)(F)F` (centres undefined), for which, in the data set with RAW264.7 [1], the Activity result is on record as “Non-Toxic”.
Still for that read-out and setting: with `CCCCCCCCCCCCCC/C=C(/OC(=O)C(C)c1ccc(CC(C)C)cc1)C(F)(F)F` (centres undefined) the entry was “Non-Toxic”.
With `CCCCCCCCCCCCCCCCCC/C=C(/OC(=O)C(C)c1ccc(CC(C)C)cc1)C(F)(F)F` (centres undefined), the Activity result in the data set with RAW264.7 [1] is “Non-Toxic”.
`CCCCC/C=C\C/C=C\C/C=C\C/C=C\CC/C=C(/OC(=O)C(C)c1ccc(-c2ccccc2)c(F)c1)C(F)(F)F` (centres undefined): the Activity entry in the data set with RAW264.7 [1] is “Non-Toxic”. Further, the IC50 in the data set on RAW264.7 [2] was determined as 7.08 µM.
With `CCCCCCCCCC/C=C(/OC(=O)c1ccccc1OC(C)=O)C(F)(F)F`, the Activity result in the data set with RAW264.7 [1] was “Non-Toxic”.
